Experimental data as given in ChEMBL document CHEMBL1909046, “DrugMatrix in vitro pharmacology data”.

Assays:
[1] = molecular target: T1, Alpha-2C adrenergic receptor (Homo sapiens, UniProt P18825); assay: DRUGMATRIX: Adrenergic Alpha-2C radioligand binding (ligand: [3H] MK-912); format: cell membranes, Sf9, Membrane; details: sf9
T1 sequence (P18825 whole entry): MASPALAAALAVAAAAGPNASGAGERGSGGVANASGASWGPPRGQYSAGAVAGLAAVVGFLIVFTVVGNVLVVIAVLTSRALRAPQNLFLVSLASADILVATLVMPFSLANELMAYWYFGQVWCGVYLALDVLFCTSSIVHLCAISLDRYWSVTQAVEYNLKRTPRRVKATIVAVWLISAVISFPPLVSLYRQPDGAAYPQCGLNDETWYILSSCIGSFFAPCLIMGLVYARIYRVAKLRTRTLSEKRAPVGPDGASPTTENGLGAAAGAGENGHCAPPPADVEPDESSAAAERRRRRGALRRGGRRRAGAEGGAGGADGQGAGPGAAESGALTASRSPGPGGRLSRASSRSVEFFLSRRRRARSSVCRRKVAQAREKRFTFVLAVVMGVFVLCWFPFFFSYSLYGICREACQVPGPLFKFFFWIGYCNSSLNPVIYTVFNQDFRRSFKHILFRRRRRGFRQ

[2] = molecular target: Beta-1 adrenergic receptor (Homo sapiens, UniProt P08588); assay: DRUGMATRIX: Adrenergic beta1 radioligand binding (ligand: [125I] Cyanopindolol); format: cell membranes, CHO-K1, Membrane; details: cho-k1; Not Active = under 50% inhibition at 10 µM
[3] = DRUGMATRIX: Serotonin (5-Hydroxytryptamine) 5-HT3 radioligand binding (ligand: [3H] GR-65630); format: cell membranes, Membrane; details: hek293; Not Active = under 50% inhibition at 10 µM
[4] = molecular target: T2, C-X-C chemokine receptor type 1 (Homo sapiens, UniProt P25024); also: in other assays of this panel Not Active means under 50% inhibition at 10 µM
T2 sequence (P25024 whole entry): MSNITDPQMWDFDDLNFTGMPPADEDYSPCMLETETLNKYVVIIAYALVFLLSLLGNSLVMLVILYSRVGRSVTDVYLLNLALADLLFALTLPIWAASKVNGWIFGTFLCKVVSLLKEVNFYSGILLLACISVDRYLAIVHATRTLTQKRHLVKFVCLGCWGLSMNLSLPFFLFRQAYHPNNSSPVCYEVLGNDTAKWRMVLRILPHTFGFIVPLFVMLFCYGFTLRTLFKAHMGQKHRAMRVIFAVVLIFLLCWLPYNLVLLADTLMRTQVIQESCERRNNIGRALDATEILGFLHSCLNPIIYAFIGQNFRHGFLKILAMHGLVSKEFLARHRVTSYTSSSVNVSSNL

[5] = molecular target: T3, C-X-C chemokine receptor type 2 (Homo sapiens, UniProt P25025); format: cell membranes, Membrane; details: cho-k1; also: in other assays of this panel Not Active means under 50% inhibition at 10 µM
T3 sequence (P25025 whole entry): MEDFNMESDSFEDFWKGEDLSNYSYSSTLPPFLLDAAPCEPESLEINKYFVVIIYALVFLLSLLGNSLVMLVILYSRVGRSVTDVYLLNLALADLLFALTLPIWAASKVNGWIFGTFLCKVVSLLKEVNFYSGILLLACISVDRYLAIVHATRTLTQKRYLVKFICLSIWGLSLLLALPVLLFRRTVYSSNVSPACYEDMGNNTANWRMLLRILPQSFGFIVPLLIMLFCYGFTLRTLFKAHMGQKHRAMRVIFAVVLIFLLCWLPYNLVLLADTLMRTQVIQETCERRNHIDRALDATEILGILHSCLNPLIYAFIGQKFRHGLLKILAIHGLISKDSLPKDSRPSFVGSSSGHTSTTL

[6] = DRUGMATRIX: Phorbol Ester radioligand binding (ligand: [3H] PDBu); format: cell membranes, Mus musculus, ICR, Brain, Membrane; details: Not Active = under 50% inhibition at 10 µM
Cathepsin G = molecular target: T4, Cathepsin G (Homo sapiens, UniProt P08311); format: tissue-based; details: neutrophil;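 also: inhibition of Cathepsin G enzyme activity, tested on an AMC-conjugated peptide substrate; in other assays of this panel Not Active means under 50% inhibition at 10 µM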
T4 sequence (P08311 whole entry): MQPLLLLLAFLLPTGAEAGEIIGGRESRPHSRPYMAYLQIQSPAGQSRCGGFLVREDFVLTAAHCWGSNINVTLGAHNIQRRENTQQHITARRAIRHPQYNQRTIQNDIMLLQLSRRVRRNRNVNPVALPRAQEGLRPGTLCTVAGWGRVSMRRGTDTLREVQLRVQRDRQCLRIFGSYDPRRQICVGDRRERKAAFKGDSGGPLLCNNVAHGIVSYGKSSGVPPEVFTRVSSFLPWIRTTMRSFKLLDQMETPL

Cytochrome P450 2A6 = molecular target: T5, Cytochrome P450 2A6 (Homo sapiens, UniProt P11509); details: bti-tn-5b1-4; also: in other assays of this panel Not Active means under 50% inhibition at 10 µM
T5 sequence (P11509 whole entry): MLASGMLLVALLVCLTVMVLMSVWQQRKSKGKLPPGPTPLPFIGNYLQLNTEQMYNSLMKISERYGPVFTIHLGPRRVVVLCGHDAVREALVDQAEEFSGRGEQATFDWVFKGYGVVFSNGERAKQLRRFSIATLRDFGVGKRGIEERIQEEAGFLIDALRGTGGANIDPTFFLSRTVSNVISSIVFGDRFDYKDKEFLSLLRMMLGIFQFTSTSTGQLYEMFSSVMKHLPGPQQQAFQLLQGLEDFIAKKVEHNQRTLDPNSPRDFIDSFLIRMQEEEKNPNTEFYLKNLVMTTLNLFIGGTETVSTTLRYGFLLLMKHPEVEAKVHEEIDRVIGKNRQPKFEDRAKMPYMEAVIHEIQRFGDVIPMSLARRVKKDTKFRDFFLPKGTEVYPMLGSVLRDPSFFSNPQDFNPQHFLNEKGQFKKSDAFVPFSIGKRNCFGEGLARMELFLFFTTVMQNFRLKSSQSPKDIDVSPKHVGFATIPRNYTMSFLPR

[7] = molecular target: Voltage-gated inwardly rectifying potassium channel KCNH2 (Homo sapiens, UniProt Q12809); details: hek293; also: in other assays of this panel Not Active means under 50% inhibition at 10 µM
Sequence of Voltage-gated inwardly rectifying potassium channel KCNH2 (Q12809 whole entry): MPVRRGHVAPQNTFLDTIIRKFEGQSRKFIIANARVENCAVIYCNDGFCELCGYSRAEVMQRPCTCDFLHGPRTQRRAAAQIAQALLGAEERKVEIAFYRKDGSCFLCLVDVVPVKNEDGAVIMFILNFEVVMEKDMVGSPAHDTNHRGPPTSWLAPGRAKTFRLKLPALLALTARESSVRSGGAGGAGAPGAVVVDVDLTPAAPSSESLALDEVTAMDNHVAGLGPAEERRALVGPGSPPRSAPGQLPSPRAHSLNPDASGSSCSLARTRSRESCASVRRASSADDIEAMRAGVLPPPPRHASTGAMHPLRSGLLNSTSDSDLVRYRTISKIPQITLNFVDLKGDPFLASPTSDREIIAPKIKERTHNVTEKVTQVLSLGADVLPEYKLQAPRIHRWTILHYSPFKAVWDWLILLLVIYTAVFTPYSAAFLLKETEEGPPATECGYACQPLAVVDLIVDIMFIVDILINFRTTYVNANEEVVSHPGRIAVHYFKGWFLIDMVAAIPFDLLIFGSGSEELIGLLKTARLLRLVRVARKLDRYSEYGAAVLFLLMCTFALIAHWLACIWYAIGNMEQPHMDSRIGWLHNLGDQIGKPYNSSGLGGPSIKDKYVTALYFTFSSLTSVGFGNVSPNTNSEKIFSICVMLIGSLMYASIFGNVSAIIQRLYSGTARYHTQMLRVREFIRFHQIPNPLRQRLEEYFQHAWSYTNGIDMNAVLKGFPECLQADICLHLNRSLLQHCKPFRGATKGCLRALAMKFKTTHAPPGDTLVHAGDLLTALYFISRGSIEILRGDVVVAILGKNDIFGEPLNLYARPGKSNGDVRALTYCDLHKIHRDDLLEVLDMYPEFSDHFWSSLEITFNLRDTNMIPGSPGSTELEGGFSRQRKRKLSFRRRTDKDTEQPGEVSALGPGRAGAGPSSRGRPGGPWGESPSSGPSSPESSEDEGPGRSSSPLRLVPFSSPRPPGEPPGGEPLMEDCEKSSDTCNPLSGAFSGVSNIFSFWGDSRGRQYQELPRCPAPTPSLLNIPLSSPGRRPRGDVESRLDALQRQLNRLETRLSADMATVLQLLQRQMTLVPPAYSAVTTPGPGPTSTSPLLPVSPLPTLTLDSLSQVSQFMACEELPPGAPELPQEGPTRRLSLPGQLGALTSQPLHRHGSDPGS

Sequence of Beta-1 adrenergic receptor (P08588 whole entry): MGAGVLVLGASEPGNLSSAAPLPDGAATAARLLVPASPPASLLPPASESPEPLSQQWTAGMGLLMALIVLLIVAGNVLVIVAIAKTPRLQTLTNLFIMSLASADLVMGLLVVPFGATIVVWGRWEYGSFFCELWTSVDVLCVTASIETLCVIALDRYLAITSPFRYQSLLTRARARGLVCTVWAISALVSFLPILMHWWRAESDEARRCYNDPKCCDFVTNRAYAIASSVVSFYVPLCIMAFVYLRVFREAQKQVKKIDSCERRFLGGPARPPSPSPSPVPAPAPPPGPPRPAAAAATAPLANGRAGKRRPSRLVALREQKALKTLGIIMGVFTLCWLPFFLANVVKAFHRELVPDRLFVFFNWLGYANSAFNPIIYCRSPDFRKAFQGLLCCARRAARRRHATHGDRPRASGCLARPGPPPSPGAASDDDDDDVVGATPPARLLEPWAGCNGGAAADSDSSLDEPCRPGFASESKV

CC(c1cc2ccccc2s1)N(O)C(N)=O (stereo not given) [ZILEUTON]
Not Active: IC50 [1] | IC50 [2] | IC50 [3] | Ki [3] | IC50 [4] | IC50 [5] | IC50 [6] | Ki [6] | IC50 (Cathepsin G) | IC50 (Cytochrome P450 2A6) | Ki (Cytochrome P450 2A6) | IC50 [7] | Ki [7]

O=C1C(CC[S+]([O-])c2ccccc2)C(=O)N(c2ccccc2)N1c1ccccc1 (stereo not given) [SULFINPYRAZONE]
Not Active: IC50 [1] | IC50 [2] | IC50 [3] | Ki [3] | IC50 [4] | IC50 [5] | IC50 [6] | Ki [6] | IC50 (Cathepsin G) | IC50 (Cytochrome P450 2A6) | Ki (Cytochrome P450 2A6) | IC50 [7] | Ki [7]

CCN1CCC[C@H]1CNC(=O)c1cc(S(N)(=O)=O)ccc1OC [LEVOSULPIRIDE]
Not Active: IC50 [1] | IC50 [2] | IC50 [3] | Ki [3] | IC50 [4] | IC50 [5] | IC50 [6] | Ki [6] | IC50 (Cathepsin G) | IC50 (Cytochrome P450 2A6) | Ki (Cytochrome P450 2A6) | IC50 [7] | Ki [7]

CCN(CC)CCNC(=O)c1cc(S(C)(=O)=O)ccc1OC [TIAPRIDE]
Not Active: IC50 [1] | IC50 [2] | IC50 [3] | Ki [3] | IC50 [4] | IC50 [5] | IC50 [6] | Ki [6] | IC50 (Cathepsin G) | IC50 (Cytochrome P450 2A6) | Ki (Cytochrome P450 2A6) | IC50 [7] | Ki [7]

CCCCOc1cc(CC2CNC(=O)N2)ccc1OC (stereo not given) [RO-201724]
Not Active: IC50 [1] | IC50 [2] | IC50 [3] | Ki [3] | IC50 [4] | IC50 [5] | IC50 [6] | Ki [6] | IC50 (Cathepsin G) | IC50 (Cytochrome P450 2A6) | Ki (Cytochrome P450 2A6) | IC50 [7] | Ki [7]
